One assay concerns the target ErbB2 kinase (Homo sapiens, UniProt P04626). As to the kind of experiment: Enzymatic experiment on ErbB2 (HTRF kinEASE-TK). The class given is biochemical. The following applies: ATP 4 μM; read-out: Kinase IC50 (nM) in vitro ErbB2. In short, it runs like this: (§1)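 HTRF kinEASE-TK with biotinylated TK substrate in HEPES pH 7.0 buffer containing MnCl2, MgCl2 and DTT; ErbB2 at 0.06 ng/μl with 4 μM ATP, EGFR at 0.06 units/μl with 1.65 μM ATP, 30 min at room temperature after 5 min enzyme/substrate–compound preincubation. Ten-point 3-fold dilutions; Eu antibody/SA-XL665 detection, 665/620 ratio.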
(Time-resolved FRET reads energy transfer from a long-lived donor to a nearby acceptor.)

The next assay has as its system BT-474. As to the kind of experiment: Proliferation inhibition assay in vitro, BT-474 (CellTiter-Glo). To be noted: Homo sapiens, 72 hours, read-out: IC50(nM) cell BT-474. The class given is cell-based. How it is done: (§2) Proliferation Inhibition Assay In Vitro of Cell Lines
(§3) 1. Cell culture and inoculation: on the first day of the experiment, normal cultured cells were taken in the exponential growth phase, the cells were dispersed by digesting, then the cell density was adjusted to 8.8×10^4 cells/mL for BT-474 and 6.6×10^4 cells/mL for N87, 90 μl of which were inoculated to each well in a 96-well cell culture plate; after inoculation, the microplate was placed at condition of 37° C., 5% CO2 overnight. 2. Dosing to cells: on the second day of the experiment, the microplate was taken out from incubator, […], of 10× compound was separately added to each well of the microplate, 2 duplicated wells were set for each concentration, 9 dosing concentrations were set for each compound. According to different cell lines, the initial concentration of each compound was different. Upon completion of addition, the microplate was placed at condition of 37° C., 5% CO2 for 72 hours. 3. Data acquisition: the microplate was taken out from the incubator and allowed to stand at room temperature to equilibrate for 30 minutes. 100 μl CellTiter-Glo® Luminescent Cell Viability Assay reaction solution which had been equilibrated at room temperature was added to each well and the microplate was shaken at 1300 rpm for 2 minutes at room temperature. The microplate was centrifuged at 2000 rpm for 1 minute in a HERAEUS Multifuge X1R and then allowed to equilibrate at room temperature for 10 minutes. The […] signal was measured on EnVision™.
(ATP-based viability assays read luminescence as a measure of living cells.)

Another assay deals with N87. Briefly: Proliferation inhibition assay in vitro, N87 (CellTiter-Glo). The following applies: Homo sapiens; 72 hours; read-out: IC50(nM) cell N87. The class given is cell-based. Here is the method:
as §2, §3

The target in another assay is EGFR kinase (Homo sapiens, UniProt P00533). As to the kind of experiment: Enzymatic experiment on EGFR (HTRF kinEASE-TK). In kind it is biochemical. The following applies: ATP 1.65 μM; read-out: Kinase IC50 (nM) in vitro EGFR. In short, it runs like this: as §1

The results in this text go back to patent US10828305B2 (SHANGHAI PHARMACEUTICALS HOLDING CO., LTD., priority 2016, dated 2020).

ErbB2 kinase, sequence (P04626 23-1255): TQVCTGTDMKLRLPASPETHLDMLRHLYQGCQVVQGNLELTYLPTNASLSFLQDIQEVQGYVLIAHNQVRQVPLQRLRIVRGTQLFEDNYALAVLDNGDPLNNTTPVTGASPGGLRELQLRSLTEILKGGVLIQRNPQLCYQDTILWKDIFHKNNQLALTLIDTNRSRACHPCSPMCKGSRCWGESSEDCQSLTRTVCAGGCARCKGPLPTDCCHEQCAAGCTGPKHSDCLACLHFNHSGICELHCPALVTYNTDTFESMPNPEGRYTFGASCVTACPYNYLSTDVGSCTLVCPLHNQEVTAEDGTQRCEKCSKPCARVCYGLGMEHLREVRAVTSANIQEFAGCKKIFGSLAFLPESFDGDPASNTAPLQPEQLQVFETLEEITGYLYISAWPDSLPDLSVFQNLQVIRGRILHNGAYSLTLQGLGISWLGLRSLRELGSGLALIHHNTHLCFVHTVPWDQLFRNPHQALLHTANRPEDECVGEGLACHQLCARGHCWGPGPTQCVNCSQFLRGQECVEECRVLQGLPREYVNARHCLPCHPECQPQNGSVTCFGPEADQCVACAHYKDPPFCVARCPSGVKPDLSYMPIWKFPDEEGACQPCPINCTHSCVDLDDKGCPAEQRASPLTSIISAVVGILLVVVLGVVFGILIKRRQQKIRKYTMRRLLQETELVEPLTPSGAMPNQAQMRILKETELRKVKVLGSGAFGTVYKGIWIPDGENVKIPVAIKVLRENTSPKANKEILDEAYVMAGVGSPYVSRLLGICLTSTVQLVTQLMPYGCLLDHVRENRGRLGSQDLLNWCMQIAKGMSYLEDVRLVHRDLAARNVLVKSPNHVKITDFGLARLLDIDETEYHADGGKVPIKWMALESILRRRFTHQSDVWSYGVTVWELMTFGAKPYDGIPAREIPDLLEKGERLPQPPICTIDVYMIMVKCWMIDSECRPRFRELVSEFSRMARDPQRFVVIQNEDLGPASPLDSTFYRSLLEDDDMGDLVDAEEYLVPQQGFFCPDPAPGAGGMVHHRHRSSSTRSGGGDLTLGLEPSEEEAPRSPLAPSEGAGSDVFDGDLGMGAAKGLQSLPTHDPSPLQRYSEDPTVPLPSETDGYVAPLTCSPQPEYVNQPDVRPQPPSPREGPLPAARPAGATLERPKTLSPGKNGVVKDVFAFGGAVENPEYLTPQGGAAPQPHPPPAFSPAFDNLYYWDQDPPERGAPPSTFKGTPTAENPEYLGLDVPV
EGFR kinase, sequence (P00533 25-1210): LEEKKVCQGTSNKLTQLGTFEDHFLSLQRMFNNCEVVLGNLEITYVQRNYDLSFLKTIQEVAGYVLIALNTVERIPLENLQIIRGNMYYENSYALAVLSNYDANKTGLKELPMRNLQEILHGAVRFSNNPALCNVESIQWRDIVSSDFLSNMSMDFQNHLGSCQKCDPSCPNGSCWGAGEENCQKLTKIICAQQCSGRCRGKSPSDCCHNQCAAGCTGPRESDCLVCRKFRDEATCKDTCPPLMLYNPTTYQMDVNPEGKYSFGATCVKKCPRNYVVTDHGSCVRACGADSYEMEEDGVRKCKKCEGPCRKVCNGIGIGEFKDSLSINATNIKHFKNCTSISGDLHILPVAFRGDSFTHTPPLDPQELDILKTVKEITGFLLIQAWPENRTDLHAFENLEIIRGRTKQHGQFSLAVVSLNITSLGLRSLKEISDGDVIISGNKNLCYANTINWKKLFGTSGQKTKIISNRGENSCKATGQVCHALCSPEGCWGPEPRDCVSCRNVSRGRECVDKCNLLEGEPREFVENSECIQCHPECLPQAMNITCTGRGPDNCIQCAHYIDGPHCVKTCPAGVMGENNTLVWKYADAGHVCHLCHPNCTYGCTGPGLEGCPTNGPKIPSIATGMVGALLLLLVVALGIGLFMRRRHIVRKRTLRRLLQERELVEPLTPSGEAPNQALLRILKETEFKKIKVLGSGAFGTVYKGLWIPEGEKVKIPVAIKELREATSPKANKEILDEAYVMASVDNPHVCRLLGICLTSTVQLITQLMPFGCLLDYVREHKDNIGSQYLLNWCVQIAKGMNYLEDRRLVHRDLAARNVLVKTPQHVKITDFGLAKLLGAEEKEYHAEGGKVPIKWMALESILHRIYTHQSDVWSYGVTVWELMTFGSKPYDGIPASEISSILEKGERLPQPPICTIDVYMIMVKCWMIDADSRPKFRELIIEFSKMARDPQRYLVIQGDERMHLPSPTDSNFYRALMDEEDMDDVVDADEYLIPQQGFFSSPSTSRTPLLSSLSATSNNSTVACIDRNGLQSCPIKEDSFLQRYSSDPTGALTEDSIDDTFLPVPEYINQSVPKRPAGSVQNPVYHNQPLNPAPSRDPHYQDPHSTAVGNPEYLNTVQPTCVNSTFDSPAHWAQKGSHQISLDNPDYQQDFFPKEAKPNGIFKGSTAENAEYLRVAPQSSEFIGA

What is called IC50 is the concentration at which inhibition is half-maximal. As for `CCNC(=O)NC/C=C/c1ccc2ncnc(Nc3ccc(Oc4cc5nncn5cn4)c(C)c3)c2c1` [Embodiment 49, (E)-1-(3-(4-((4-([1,2,4]triazolo[4,3-c]pyrimidin-7-yloxy)-3-methylphenyl)amino)quinazolin-6-yl)allyl)-3-ethylurea], the IC50 at ErbB2 kinase is 1.85 nM; in the assay with BT-474 it was 33.4 nM; in the assay on N87 it was 271 nM; at EGFR kinase, 28.1 nM.
As to `C=CC(=O)N1CCC(Oc2cc3c(Nc4ccc(Oc5cc6nncn6cn5)c(C)c4)ncnc3cc2OC)CC1` [Embodiment 41, 1-(4-((4-((4-([1,2,4]triazolo[4,3-c]pyrimidin-7-yloxy)-3-methylphenyl)amino)-7-methoxyquinazolin-6-yl)oxy)piperidin-1-yl)pro-2-en-1-one], the IC50 at ErbB2 kinase was 4.3 nM; with BT-474, 6.9 nM; in the assay with N87 it was 11.7 nM; at EGFR kinase it was 1.3 nM.
For the compound `Cc1cc(Nc2ncnc3ccc(-c4cccc(NCCS(C)(=O)=O)c4)cc23)ccc1Oc1cc2nncn2cn1` [Embodiment 115], the IC50 on ErbB2 kinase is 5.91 nM; in the assay with BT-474, 58.6 nM; in the assay on N87 it was 84 nM; at EGFR kinase it was 75.9 nM.
For the compound `Cc1cc(Nc2ncnc3ccc(NC(=O)Nc4cc(C)n(C)n4)cc23)ccc1Oc1cc2nncn2cn1` [Embodiment 73, 1-(4-((4-([1,2,4]triazolo[4,3-c]pyrimidin-7-yloxy)-3-methylphenyl)amino)quinazolin-6-yl)-3-(1,5-dimethyl-1H-pyrazol-3-yl)urea], the IC50 at ErbB2 kinase was 4.21 nM; with BT-474 it was 139 nM; with N87, 162 nM; at EGFR kinase it was 34.9 nM.
Regarding `Cc1cc(Nc2ncnc3ccc(NC(=O)C4CC(Br)=NO4)cc23)ccc1Oc1cc2nncn2cn1` (stereo not shown) [Embodiment 58, N-(4-((4-([1,2,4]triazolo[4,3-c]pyrimidin-7-yloxy)-3-methylphenyl)amino)quinazolin-6-yl)-3-bromo-4,5-dihydroisoxazol-5-carboxamide], the IC50 came out at 5.4 nM on ErbB2 kinase, 352 nM in the assay with BT-474, 192 nM in the assay on N87 and 206 nM on EGFR kinase.
`C=CC(=O)Nc1ccc2ncnc(Nc3ccc(Oc4cc5nncn5cn4)c(C)c3)c2c1` [Embodiment 124, N-(4-((4-([1,2,4]triazolo[4,3-c]pyrimidin-7-yloxy)-3-methylphenyl)amino)quinazolin-6-yl) acrylamide]: the IC50 on ErbB2 kinase turned out to be 2.8 nM; with BT-474, 9.5 nM; with N87, 11.4 nM; on EGFR kinase, 2.3 nM.
The like results for `CC1(C)COC(Nc2ccc3ncnc(Nc4ccc(Oc5cc6nncn6cn5)c(C(F)(F)F)c4)c3c2)=N1` [Embodiment 81, N^4-(3-trifluoromethyl-4-([1,2,4]triazolo[4,3-c]pyrimidin-7-yloxy)phenyl)-N^6-(4,4-dimethyl-4,5-dihydrooxazol-2-yl)quinazolin-4,6-diamine] were, in that order, 16.6 nM, 1270 nM, 749 nM and 51.9 nM.
For `Cc1cc(NC(=O)Nc2ccc3ncnc(Nc4ccc(Oc5cc6nncn6cn5)c(C)c4)c3c2)no1` [Embodiment 67, 1-(4-((4-([1,2,4]triazolo[4,3-c]pyrimidin-7-yloxy)-3-methylphenyl)amino)quinazolin-6-yl)-3-(5-methylisoxazol-3-yl)urea], the IC50 on ErbB2 kinase turned out to be 3.2 nM; in the assay with BT-474, 177 nM; with N87, 264 nM; at EGFR kinase, 157 nM.
For `Cc1cc(Nc2ncnc3ccc(-c4ccc(CNCCS(C)(=O)=O)o4)cc23)ccc1Oc1cc2nncn2cn1` [Embodiment 15, N-(4-([1,2,4]triazolo[4,3-c]pyrimidin-7-yloxy)-3-methylphenyl)-6-(5-(((2-(methylsulfonyl)ethyl)amino)methyl)furan-2-yl)quinazolin-4-amine], the half-maximal inhibitory concentration (IC50) was found to be 1.2 nM at ErbB2 kinase, 17.4 nM in the assay with BT-474, 33.2 nM in the assay with N87 and 14.9 nM at EGFR kinase.
For `CC(=O)C(=O)Nc1ccc2ncnc(Nc3ccc(Oc4cc5nncn5cn4)c(C)c3)c2c1` [Embodiment 128, N-(4-((4-([1,2,4]triazolo[4,3-c]pyrimidin-7-yloxy)-3-methylphenyl)amino)quinazolin-6-yl)-2-oxopropionamide], the IC50 at ErbB2 kinase was 14.8 nM; with BT-474, 484 nM; with N87, 868 nM; on EGFR kinase, 28.7 nM.
With `Cc1cc(Nc2ncnc3ccc(NC4=NC5(CO4)CC(O)C5)cc23)ccc1Oc1cc2nncn2cn1` (stereo not shown) [Embodiment 27, 6-((4-((4-([1,2,4]triazolo[4,3-c]pyrimidin-7-yloxy)-3-methylphenyl)amino)quinazolin-6-yl)amino)-7-oxa-5-azaspiro[3,4]oct-5-en-2-ol], the IC50 on ErbB2 kinase turned out to be 1.92 nM; in the assay with BT-474 it was 112 nM; in the assay with N87 it was 543 nM; at EGFR kinase it was 8.1 nM.
On to `Cc1coc(NC(=O)Nc2ccc3ncnc(Nc4ccc(Oc5cc6nncn6cn5)c(C)c4)c3c2)n1` [Embodiment 74, 1-(4-((4-([1,2,4]triazolo[4,3-c]pyrimidin-7-yloxy)-3-methylphenyl)amino)quinazolin-6-yl)-3-(4-methyloxazol-2-yl)urea], for which the IC50 came out at 2.4 nM at ErbB2 kinase, 85.8 nM with BT-474, 106 nM in the assay with N87 and 43.3 nM on EGFR kinase.
On to `Cc1cc(Nc2ncnc3ccc(-c4cccc(N5CCS(=O)(=O)CC5)c4)cc23)ccc1Oc1cc2nncn2cn1` [Embodiment 116, 4-(3-(4-((4-([1,2,4]triazolo[4,3-c]pyrimidin-7-yloxy)-3-methylphenyl)amino)quinazolin-6-yl)phenyl)thiomorpholin-1,1-dioxide], for which the half-inhibitory concentration (IC50) on ErbB2 kinase was determined as 1.3 nM; in the assay on BT-474 it was 12.6 nM; in the assay with N87 it was 18.3 nM; on EGFR kinase, 11.7 nM.
In the case of `CCNC(=O)Nc1cccc(-c2ccc3ncnc(Nc4ccc(Oc5cc6nncn6cn5)c(C)c4)c3c2)c1` [Embodiment 50, 1-(3-(4-((4-([1,2,4]triazolo[4,3-c]pyrimidin-7-yloxy)-3-methylphenyl)amino)quinazolin-6-yl)phenyl)-3-ethylurea], the IC50 at ErbB2 kinase is 3.6 nM; in the assay on BT-474, 104 nM; in the assay with N87, 116 nM; on EGFR kinase it was 27.8 nM.
Take `Cc1cc(Nc2ncnc3ccc(-c4ccc(CN5CCS(=O)(=O)CC5)o4)cc23)ccc1Oc1cc2nncn2cn1` [Embodiment 63]: the IC50 on ErbB2 kinase turned out to be 1.8 nM; in the assay on BT-474, 12.7 nM; in the assay on N87 it was 13 nM; on EGFR kinase, 29.5 nM.
As for `C=CC(=O)NC/C=C/c1ccc2ncnc(Nc3ccc(Oc4cc5nncn5cn4)c(C)c3)c2c1` [Embodiment 53, (E)-N-(3-(4-((4-([1,2,4]triazolo[4,3-c]pyrimidin-7-yloxy)-3-methylphenyl)amino)quinazolin-6-yl)allyl)acrylamide], the IC50 at ErbB2 kinase amounted to 3.58 nM; in the assay with BT-474 it was 5.9 nM; with N87, 6.2 nM; on EGFR kinase, 57.9 nM.
The like results for `Cc1cc(Nc2ncnc3ccc(-c4cc[nH]c4)cc23)ccc1Oc1cc2nncn2cn1` [Embodiment 80, N-(4-([1,2,4]triazolo[4,3-c]pyrimidin-7-yloxy)-3-methylphenyl)-6-(1H-pyrrol-3-yl)quinazolin-4-amine] were, in that order, 1 nM, 120 nM, 36 nM and 12.6 nM.
Turning to `Cc1cc(Nc2ncnc3ccc(-c4ccc(CNCCNS(C)(=O)=O)o4)cc23)ccc1Oc1cc2nncn2cn1` [Embodiment 36, N-(2-(((5-(4-((4-([1,2,4]triazolo[4,3-c]pyrimidin-7-yloxy)-3-methylphenyl)amino)quinazolin-6-yl)furan-2-yl)methyl)amino)ethyl)methylsulfonamide], the IC50 worked out at 1.5 nM on ErbB2 kinase, 21.5 nM in the assay with BT-474, 47.5 nM with N87 and 1.9 nM on EGFR kinase.
The like results for `C=CC(=O)Nc1cc(-c2ccc3ncnc(Nc4ccc(Oc5cc6nncn6cn5)c(C)c4)c3c2)ccn1` [Embodiment 55, N-(4-(4-((4-([1,2,4]triazolo[4,3-c]pyrimidin-7-yloxy)-3-methylphenyl)amino)quinazolin-6-yl)pyridin-2-yl)acrylamide] were, in that order, 1 nM, 28.4 nM, 122 nM and 15.9 nM.
